The test system of test [1] is CLN2 cells (GM09668, GM09669, GM10570). The test can be described thus: Quantification of autofluorescence as % Fluorescent Area by image analysis (HALO). In kind it is cell-based, human. Conditions: for % Fluorescent Area: 10 days culture. As for the experimental part: (§1) Ceroid lipofuscinosis type 2 patient-derived fibroblasts (CLN2 cells, 7 donors: GM09668, GM09669, GM09404, GM10570, GM10672, GM16485, GM16486, Coriell Institute) and normal human dermal fibroblasts (NHDF cells, Cat.No.C-12300, PromoCell GmbH) were cultured in MEM (10370088, Gibco) containing 15% FBS (HyClone) and 1×GlutaMAX™ I (Gibco) (hereafter referred to as MEM). Each cell was diluted to 0.5×10^5 cells/mL with MEM and 15 mL of each cell suspension was seeded in T75 flask (3123-075, IWAKI Inc.). Cells were cultured under 37° C., 5% CO2 conditions.
(§2) Soraprazan (Symeres) was dissolved in Dimethyl sulfoxide (DMSO) to prepare soraprazan stock solution with concentrations of 1, 10, and 100 mM. Each soraprazan stock solution was diluted 1/100 concentration with MEM to prepare media with final concentrations of 0.1, 1, and 10 μM of soraprazan (0.0367, 0.367, and 3.67 μg/mL, respectively). In addition, DMSO was diluted to 1/100 concentration with MEM, which was used as a negative control (0 μM soraprazan). Hereinafter the prepared media herein were referred to as soraprazan-containing media collectively.
Each of the CLN2 cells and the NHDF cells cultured in Example 2-1 was washed twice with Dulbecco's Phosphate-Buffered Saline (DPBS, Gibco) and detached from the flask using 1 mL of 0.25% Trypsin-EDTA (Gibco). After 10 mL of MEM was added, each cell was collected in a 15 mL tube and centrifuged at room temperature at 1000 rpm for 5 minutes, and the supernatant was removed. Then, each cell was suspended at cell density of 2×10^5 cells/mL in one of soraprazan-containing media (0, 0.1, 1, and 10 μM). Then the cell suspension was dispensed in 96-well plates (655956, Gliner) with 0.4×10^5 cells per well (200 μL per well). Cells were cultured at 37° C., in the presence of 5% CO2 for 10 days. During the culture, the medium in each well was exchanged to new corresponding soraprazan-containing medium at 3, 6, and 9 days after seeding.
The observation of autofluorescence was performed after changing the medium to FluoroBrite DMEM (A1896701, Gibco) under GFP detection conditions (BZX filter GFP, excitation wavelength:470/40 nm, absorption wavelength:525/50 nm, dichroic mirror: 495 nm).
To quantify the fluorescence intensity of autofluorescence, the same tests as in Examples 2-1 to 2-4 were performed on 3 types of CLN2 cells (GM09668, GM09669, GM10570) using soraprazan-containing medium, which contained 0, 1, and 10 μM of soraprazan, respectively. It was confirmed again that the fluorescent intensity was reduced in cells cultured in soraprazan-containing medium particularly at a concentration of 10 μM. Then, the ratio of the area where fluorescent was detected in the image (fluorescent area) to the total area of the image occupied by the cells (% Fluorescent Area) was calculated using the image analysis software HALO® (v3.2.1851.354, Indica Labs). As the analysis algorithms, Indica Labs-Area Quantification FL v2 1.6 was used. Herein the area where fluorescent was detected, irrespective of the fluorescent intensity, was defined as fluorescent area, which corresponds the area where a certain amount of lipofuscin existed.

In a further test the test system is CLN2 cells. As to the kind of experiment: Observation of autofluorescent material (lipofuscin) in CLN2 patient-derived cells by fluorescence microscopy. In kind it is cell-based, human. The following applies: CLN2 cells of 7 donors, 0.1, 1, 10 μM soraprazan, particularly at 10 μM, 10 days; FIGS. 1-8. The protocol:
as §1, §2
Each of the CLN2 cells and the NHDF cells cultured in Example 2-1 was washed twice with Dulbecco's Phosphate-Buffered Saline (DPBS, Gibco) and detached from the flask using 1 mL of 0.25% Trypsin-EDTA (Gibco). […]

The next test deals with TPP1 knockout (KO) mice. The test can be described thus: Administration test using pathological model animals, fluorescence intensities of tissues. In kind it is in vivo, mouse. Conditions: oral or intravenous soraprazan versus negative control group. As for the experimental part: A test can be performed in which an effect of soraprazan on removing lipofuscin accumulated in animal tissues by soraprazan is evaluated using mammals in which a causative gene of neuronal ceroid lipofuscinosis has been knocked out as pathological model animals. For example, a test can be performed in which an effect of soraprazan on removing lipofuscin accumulated in mouse tissues by soraprazan is evaluated using TPP1 knockout (KO) mice, which are neuronal ceroid lipofuscinosis type 2 (CLN2) pathological model cells. Generation of the TPP1 KO mice can be performed using a conventionally known method. […]
After a certain time period, for example 0.25, 0.5, 1, 2, 4, 6, 8, or 24 hours after the last administration of a chronic treatment between one week and 12 months, all TPP1 KO mice are anesthetized with isoflurane and perfused with saline from the left ventricle for 4-5 minutes for blood removal. After that, tissues (brain, heart, lungs, liver, spleen, kidneys, quadriceps, thymus, thoracic vertebrae, femur) and peripheral blood, of which fluorescence intensities are to be measured, are collected, and are stored in physiological saline to prevent drying. Fluorescence intensity measurement of lipofuscin is performed using an appropriate fluorescence intensity measuring instrument. […]

Test [2] relates to PPT1 knockout (KO) HEK293T cells or PPT1 KO CHO cells. As to the kind of experiment: Lipofuscin fluorescence emission measurement in pathological model cells. It is filed as cell-based. Conditions: final soraprazan concentrations 100 μM-10 nM, versus 100% DMSO added. As for the experimental part: Using mammalian cells in which a causative gene of neuronal ceroid lipofuscinosis has been knocked out as pathological model cells, a test can be performed in which an effect of removing lipofuscin accumulated in the cells by soraprazan is evaluated. For example, using PPT1 knockout (KO) HEK293T cells or PPT1 KO CHO cells, which are pathological model cells of neuronal ceroid lipofuscinosis type 1 (CLN1), a test can be performed in which an effect of removing lipofuscin accumulated in the cells by soraprazan is evaluated. Acquisition of a PPT1 KO cell line can be achieved using a conventionally known method.
Soraprazan is dissolved in dimethyl sulfoxide (DMSO) to a concentration of 10 mM. […]
Relative amounts of lipofuscin accumulated in cells can be measured by observing green autofluorescence emitted from the cells using a fluorescence microscope as described below. […] Then, under a fluorescence microscope, for example, excitation light with wavelength of 485 nm is irradiated to the cells and strength of emitted light from the cells with wavelength of 521 nm is measured. As a fluorescence microscope, for example, EVOS FLoid Imaging System (Thermo Fisher Scientific) can be used, and in this case, wavelengths of excitation light and observation light can be respectively set to 482 nm and 532 nm. […]

Regarding `COCCO[C@@H]1c2ccn3c(C)c(C)nc3c2N[C@H](c2ccccc2)[C@H]1O` [Soraprazan, soraprazan], the “fluorescent intensity (autofluorescence)” value in test [1] (3 types of CLN2 cells, 1 and 10 μM soraprazan, particularly at 10 μM, FIGS. 9-11) is on record as “reduced”. Also, the “% Fluorescent Area” value was 0.944% in test [1] (GM09668 cells, 1 μM soraprazan); 2.07% in test [1] (GM09668 cells, 10 μM soraprazan); 10.9% in test [1] (GM09669 cells, 1 μM soraprazan); 2.34% in test [1] (GM09669 cells, 10 μM soraprazan); 12.3% in test [1] (GM10570 cells, 1 μM soraprazan); 0.766% in test [1] (GM10570 cells, 10 μM soraprazan). Also, the “fluorescent intensity (autofluorescence, lipofuscin accumulation)” value in the test on CLN2 cells was “markedly reduced”. In addition, in the test with TPP1 knockout (KO) mice, the “amount of lipofuscin accumulated in each of the tissues (fluorescence intensity)” value is on record as “reduces the amount of lipofuscin”. Besides, the “amount of lipofuscin accumulated in the cells (fluorescence intensity)” value in test [2] is “decreases according to the concentration of soraprazan”.

Source of the values: patent US20240335432A1, “THERAPEUTIC COMPOUND FOR NEURONAL CEROID LIPOFUSCINOSIS” (JCR PHARMACEUTICALS CO., LTD., priority 2021, published 2024).
